Experimental findings from US20240226026A1, “BRANCHED TAIL LIPID COMPOUNDS AND COMPOSITIONS FOR INTRACELLULAR DELIVERY OF THERAPEUTIC AGENTS” (ModernaTX, Inc., priority 2021, published 2024) are described below.

Data set [1] deals with CD-1 mice. Description: Expression of hEPO induced by LNPs (mRNA encoding hEPO) administered to mice. The data set is classed as in vivo. As to conditions: Table 4a, serum, 6 h after intravenous injection; for Avg. hEPO Concentration (mIU/mL)* ± Avg. SD: ELLA Simple Plex Assay. Put shortly: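 LNPs of DSPC, cholesterol, PEG lipid and test ionizable lipid carrying hEPO mRNA were given intravenously. Serum hEPO was measured 6 h post-injection by ELLA Simple Plex immunoassay calibrated to the 2nd IRP WHO standard.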

Data set [2] can be described thus: Particle size (diameter) and polydispersity index of lipid nanoparticles. As to conditions: nanoparticles comprising the lipid. Type of data set: physicochemical. Put shortly: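 Size and PDI measured by dynamic light scattering (Zetasizer Nano ZS) in 1×PBS. LNPs comprised DSPC, cholesterol, PEG lipid and ionizable lipid, some with rhodamine-DOPE.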
A short description of data set [3]: Encapsulation efficiency (% EE) of lipid nanoparticles. The data set is classed as physicochemical. As to conditions: nanoparticles comprising the lipid. Put shortly:
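RNA-loaded LNPs were diluted to ~5 μg/mL in TE buffer (pH 7.5) and incubated 15 min at 37 °C with buffer or 2% Triton X-100 solution, then RiboGreen fluorescence was read (ex ~480/em ~520 nm). After blank subtraction, free RNA % = intact-sample fluorescence ÷ Triton-disrupted fluorescence.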

Data set [4] in a line: Lipid nanoparticle surface hydrophobicity by Generalized Polarization by Laurdan (N-GP). Type of data set: physicochemical. As to conditions: for Lipid nanoparticle surface hydrophobicity (N-GP*): Table 2a, Laurdan, higher N-GP indicates a less polar surface; for LNP surface hydrophobicity (N-GP*): Table 2b, nanoparticles comprising the lipid. The procedure, abridged:
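Laurdan, a fluorescent aminonaphthalene ketone lipid, is post-inserted into the nanoparticle surface. Its fluorescence spectrum is collected and converted to a normalized Generalized Polarization (N-GP) value as the measure of surface hydrophobicity.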

Data set [5] is described as follows: Apparent pKa of lipid nanoparticles. Type of data set: physicochemical. The settings on record: for Apparent pKa: Table 2a, nanoparticles comprising the lipid; for Apparent pKa 95% CI: Table 2b, 95% confidence interval.
[6] abbreviates: Table 2a, DSPC, cholesterol, PEG lipid.

Consider `CCCCCCCC(CCCCCCC)OC(=O)CCCCCCCN(CCCCCCCC(=O)OCCC(CCCC)CCCC)CCCNS(=O)(=O)CC` [Compound 19], for which the “Avg. hEPO Concentration (mIU/mL) ± Avg. SD” value in data set [1] came out at 1.36E+07 ± 2.52E+05 mIU/mL. Also, the PDI in data set [2] (Table 2a) is given as 0.127; in data set [2] (Table 2b), 0.187; in data set [2] (Table 3), 0.129. For the same molecule, the “Diameter (nm)” value in data set [2] (setting [6]) was found to be 82.8 nm; in data set [2] (Table 2b), 86.4 nm; in data set [2] (Table 3), 84.5 nm. Besides, the “% EE” value in data set [3] (Table 2a) turned out to be 77.2%; in data set [3] (Table 2b) it was 77.0%; in data set [3] (Table 3), 94.5%. Also, in data set [4], the “Lipid nanoparticle surface hydrophobicity (N-GP*)” value came to 1.00. Besides, in data set [4], the “LNP surface hydrophobicity (N-GP*)” value turned out to be 1.00. In addition, in data set [5], the “Apparent pKa” value was found to be 6.551. In data set [5], the “Apparent pKa 95% CI” value lay in the range of 6.572 to 6.671.

Take `CCCCCCCC(CCCCCCC)OC(=O)CCCCCCCN(CCCCCCCC(=O)OCCC(CCCC)CCCC)CCCNS(=O)(=O)Cc1ccon1` [Compound 20]: the “Avg. hEPO Concentration (mIU/mL)* ± Avg. SD” value in data set [1] was determined as 5.30E+06 ± 1.59E+05 mIU/mL. The results for the “Diameter (nm)” value in data set [2] (Table 2b) and in data set [2] (Table 3) were 76.7 nm and 66 nm, respectively. The PDI in data set [2] (Table 2b) is on record as 0.132; in data set [2] (Table 3), 0.106. The entries for the “% EE” value in data set [3] (Table 2b) and in data set [3] (Table 3) were 84.0% and 87.5%, respectively. Also, in data set [4], the “LNP surface hydrophobicity (N-GP*)” value is recorded as 1.00. Besides, the “Apparent pKa 95% CI” value in data set [5] fell in the range of 6.441 to 6.526.

On to `CCCCCCCC(CCCCCCC)OC(=O)CCCCCCCN(CCCCCCCC(=O)OCCC(CCCC)CCCC)CCCNc1ncccc1N` [Compound 21], for which, in data set [1], the “Avg. hEPO Concentration (mIU/mL)* ± Avg. SD” value amounted to 8.77E+05 ± 1.73E+04 mIU/mL. Besides, the “Diameter (nm)” value in data set [2] (Table 2b) is on record as 98.9 nm; in data set [2] (Table 3), 92.8 nm. Further, the PDI stood at 0.305 in data set [2] (Table 2b) and 0.255 in data set [2] (Table 3). The “% EE” value is on record as 97.9% in data set [3] (Table 2b) and 98.4% in data set [3] (Table 3). Besides, the “LNP surface hydrophobicity (N-GP*)” value in data set [4] is 1.18. In addition, the “Apparent pKa 95% CI” value in data set [5] lay within 6.685 to 6.778.

Take `CCCCCC(CCCCC)CCOC(=O)CCCCCCCN(CCCCCCCC(=O)OCCC(CCCCC)CCCCC)CCCNc1n[s+]([O-])nc1NC` (centres unmarked) [Compound 22]: in data set [1], the “Avg. hEPO Concentration (mIU/mL) ± Avg. SD” value came to 7.14E+06 ± 1.53E+05 mIU/mL. The PDI in data set [2] (Table 2a) came to 0.104; in data set [2] (Table 3), 0.195. Besides, the “Diameter (nm)” value in data set [2] (setting [6]) was determined as 78.3 nm; in data set [2] (Table 3), 83.4 nm. The “% EE” value in data set [3] (Table 2a) is recorded as 95.6%; in data set [3] (Table 3), 97.2%. Also, the “Lipid nanoparticle surface hydrophobicity (N-GP*)” value in data set [4] is on record as 1.03. For the same molecule, the “Apparent pKa” value in data set [5] is 6.895.

With `CCCCCC(CCCCC)CCOC(=O)CCCCCCCN(CCCCCCCC(=O)OCCC(CCCCC)CCCCC)CCCNc1noc(N)n1` [Compound 23], the “Avg. hEPO Concentration (mIU/mL)* ± Avg. SD” value in data set [1] is recorded as 1.17E+06 ± 1.91E+04 mIU/mL. Also, the “Diameter (nm)” value in data set [2] (Table 2b) was determined as 87.2 nm; in data set [2] (Table 3), 62.7 nm. Besides, the values for the PDI in data set [2] (Table 2b) and in data set [2] (Table 3) were 0.181 and 0.144, respectively. Moreover, the “% EE” value in data set [3] (Table 2b) is 98.1%; in data set [3] (Table 3) it was 96.4%. For the same molecule, the “LNP surface hydrophobicity (N-GP*)” value in data set [4] was 0.95. The “Apparent pKa 95% CI” value in data set [5] lay in the range of 6.511 to 6.611.

Consider `CCCCCC(CCCCC)CCOC(=O)CCCCCCCN(CCCCCCCC(=O)OCCC(CCCCC)CCCCC)CCCNS(=O)(=O)CCOC` [Compound 24], for which, in data set [1], the “Avg. hEPO Concentration (mIU/mL) ± Avg. SD” value turned out to be 8.30E+06 ± 1.36E+05 mIU/mL. For the same molecule, the values for the PDI in data set [2] (Table 2a) and in data set [2] (Table 3) were 0.112 and 0.17, respectively. For the same molecule, the “Diameter (nm)” value in data set [2] (setting [6]) is given as 87.9 nm; in data set [2] (Table 3), 93.8 nm. The entries for the “% EE” value in data set [3] (Table 2a) and in data set [3] (Table 3) were 82.9% and 95.4%, respectively. The “Lipid nanoparticle surface hydrophobicity (N-GP*)” value in data set [4] is reported as 1.05. Further, the “Apparent pKa” value in data set [5] is 6.725.

Turning to `CCCCCC(CCCCC)CCOC(=O)CCCCCCCN(CCCCCCCC(=O)OCCC(CCCCC)CCCCC)CCCNC(=O)C1(C)CC1` [Compound 25], in data set [1], the “Avg. hEPO Concentration (mIU/mL)* ± Avg. SD” value is on record as 5.13E+06 ± 9.33E+04 mIU/mL. Also, the “Diameter (nm)” value was 163.9 nm in data set [2] (Table 2b) and 89.3 nm in data set [2] (Table 3). Besides, the results for the PDI in data set [2] (Table 2b) and in data set [2] (Table 3) were 0.22 and 0.154, respectively. Moreover, the results for the “% EE” value in data set [3] (Table 2b) and in data set [3] (Table 3) were 26.4% and 36.1%, respectively. For the same molecule, the “LNP surface hydrophobicity (N-GP*)” value in data set [4] came out at 0.98. Moreover, in data set [5], the “Apparent pKa 95% CI” value is reported as 6.865 to 6.928.

`CCCCCC(CCCCC)CCOC(=O)CCCCCCCN(CCCCCCCC(=O)OCCC(CCCCC)CCCCC)CCCNS(=O)(=O)CC` [Compound 26]: in data set [1], the “Avg. hEPO Concentration (mIU/mL) ± Avg. SD” value was 1.42E+07 ± 3.66E+05 mIU/mL. Further, the PDI in data set [2] (Table 2a) is recorded as 0.113; in data set [2] (Table 3), 0.134. The “Diameter (nm)” value was determined as 84.8 nm in data set [2] (setting [6]) and 94.5 nm in data set [2] (Table 3). Further, the figures for the “% EE” value in data set [3] (Table 2a) and in data set [3] (Table 3) were 86.3% and 95.0%, respectively. Besides, in data set [4], the “Lipid nanoparticle surface hydrophobicity (N-GP*)” value came out at 1.09. Moreover, in data set [5], the “Apparent pKa” value is given as 6.645.

In the case of `CCCCCC(CCCCC)CCOC(=O)CCCCCCCN(CCCCCCCC(=O)OCCC(CCCCC)CCCCC)CCCNS(=O)(=O)Cc1ccon1` [Compound 27], the “Avg. hEPO Concentration (mIU/mL)* ± Avg. SD” value in data set [1] worked out at 2.12E+06 ± 7.18E+04 mIU/mL. The “Diameter (nm)” value in data set [2] (Table 2b) was 87.8 nm; in data set [2] (Table 3), 66.9 nm. Besides, the PDI in data set [2] (Table 2b) is 0.178; in data set [2] (Table 3), 0.148. Besides, the entries for the “% EE” value in data set [3] (Table 2b) and in data set [3] (Table 3) were 78.2% and 93.5%, respectively. Besides, the “LNP surface hydrophobicity (N-GP*)” value in data set [4] is listed as 1.00. The “Apparent pKa 95% CI” value in data set [5] is listed as 6.614 to 6.687.

Take `CCCCCC(CCCCC)CCOC(=O)CCCCCCCN(CCCCCCCC(=O)OCCC(CCCCC)CCCCC)CCCNc1ncccc1N` [Compound 28]: in data set [1], the “Avg. hEPO Concentration (mIU/mL)* ± Avg. SD” value is given as 6.30E+05 ± 1.83E+04 mIU/mL. The “Diameter (nm)” value is listed as 84.3 nm in data set [2] (Table 2b) and 90.3 nm in data set [2] (Table 3). Further, the PDI turned out to be 0.202 in data set [2] (Table 2b) and 0.161 in data set [2] (Table 3). For the same molecule, the “% EE” value is on record as 99.9% in data set [3] (Table 2b) and 99.5% in data set [3] (Table 3). Also, in data set [4], the “LNP surface hydrophobicity (N-GP*)” value came to 0.99. Further, the “Apparent pKa 95% CI” value in data set [5] was 6.545 to 6.670.
